# From patent US20100184807A1, “Methods to inhibit tumor cell growth by using proton pump inhibitors” (Bio-Quant, Inc., priority 2008, published 2010)
# Test system: GDM-1 (leukemia)
# Test: MTT tumor cell growth assay
# Type: cell-based
# Conditions: GDM-1 (FIG. 3J); 10 μM
# Procedure: In one study, adherent cells were plated approximately 16-24 hours before the day of the experiment in 180 μl growth media. On the day of the experiment, the plated adherent cells were analyzed and counted and suspension cells were plated in 180 μl growth media. 10× lansoprazole compounds and vehicle was prepared. The 10× lansoprazole compounds were prepared by diluting lansoprazole to final concentrations of 100 μM, 30 μM, 10 μM, 3 μM, and 1 μM. A vehicle was prepared by preparing a solution of PBS, equivalent to the volume used for 10 μM lansoprazole wherein the 1× solution constitutes ˜0.06% PBS. 10 μl of the various 10× lansoprazole solutions and the vehicle were added to the cells. The cells were incubated at 37° C., 5% CO2 for 48 hours. The media was then aspirated. The cell suspension was then spun at 1500 RPM for 10 minutes. The media was slowly removed. 200 μl of MTT solution was added to each well with a concentration of 0.863 mg/ml MTT in the growth media. The cells were incubated at 37° C., 5% CO2 for 4 hours and the medium is then aspirated. The plate containing the cell suspension was then spun at 1500 RPM for 10 minutes. The media was slowly removed using a multichannel pipettor. 100 μl of DMSO was then added to each well. The cells were incubated at 37° C., 5% CO2 for 5 minutes and the absorbance was obtained at 560 nm using a Dynex Opsys MR plate reader. The cells used for this procedure were the following cell lines: IGROV1 (ovarian cancer); OVCAR 8 (ovarian cancer); ES-2 (ovarian cancer); CAOV3 (ovarian cancer); OVCAR5 (ovarian cancer); SUDHL4 (lymphoma); RPMI8226 (myeloma); RPMI6666 (Hodgkin's lymphoma); NC37 (lymphoma); GDM-1 (leukemia); MC/CAR (prostate cancer); DU-145 (prostate cancer), J45-01 (leukemia), MOLT3 (leukemia), HUT78, J-gamma-1 (leukemia), MCF7 […], COL0205 (colon cancer), HL60 CLONE 15 (leukemia), T47D (breast cancer), P116 (intestinal cancer), KU812 (leukemia), SW620 (colon cancer), MK92-M1 (lymphoma), MV-4-11 (leukemia), HS578T (breast cancer), HT29 (colon cancer), HCT 116 (colon cancer), CAKI-1 (kidney cancer), A549 (lung cancer), H460 (lung cancer), A3 (colon cancer), MDA-MB231 […], MALME 3M (melanoma), RXF393 (kidney cancer), RS4.11 (leukemia), PC3 (prostate cancer), OVCAR3 (ovarian cancer), MDA-MB435 (melanoma), HUT102 (lymphoma), HL60 (leukemia), CCRF-CEM (leukemia), HUT78 (lymphoma), 786-O (kidney cancer), ACHN (kidney cancer), A498 (kidney cancer), H226 (lung cancer), H522 (lung cancer), HOP92 (lung cancer), SNB 19 (brain cancer), OVCAR4 (ovarian cancer), H9 (lymphoma), UO-31 (kidney cancer), HH (lymphoma), DAUDI (leukemia), LOXIMVI (melanoma), NAMALWA (lymphoma), EKVX (lung cancer), DOHH2 (lymphoma), SNB75 (brain cancer), SKMEL28 (melanoma), SKMEL5 (melanoma), SKMEL2 (melanoma), M14 (melanoma), UACC 257 (melanoma), H332M (lung cancer), KM12 (colon cancer), HCC2998 (colon cancer), G401 (kidney cancer), RS1184 (lymphoma), MC116 (leukemia), MOLT4 (leukemia), JM1 (liver cancer), HOP-62 (lung cancer), HCT-15 (colon cancer), SF-539 (brain cancer), SF295 (brain cancer), ST486 (lymphoma), U251 (brain cancer), and UACC-62 (melanoma).
# Experiments, as described in Example I were conducted with lansoprazole, omeprazole and SCH 28080 at concentrations of 1 μM, 10 μM, and 100 μM. FIGS. 3A-3K show the experimental results when tumor cells from the following cell lines were treated with lansoprazole, omeprazole, and SCH 28080: IGROV1 (FIG. 3A), OVCAR8 (FIG. 3B), ES-2 (FIG. 3C), CAOV3 (FIG. 3D), OVCAR5 (FIG. 3E), SUDHL4 (FIG. 3F), RPMI8226 (FIG. 3G), RPMI6666 (FIG. 3H), NC37 (FIG. 3I), GDM-1 (FIG. 3J), and MC/CAR (FIG. 3K).
smiles,measurement,value
"Cc1nc2c(OCc3ccccc3)cccn2c1CC#N [SCH28080, SCH 28080]",reducing tumor cell growth,effective in reducing tumor cell growth
